From article PMC9549030, “Structural basis for specific inhibition of the deubiquitinase UCHL1” (Nature Communications, 2022)
Where “and” joins values, the source holds several entries; their conditions need not be identical. Identical values can stand only once. Like-named read-outs stand apart in the source and are kept apart here.

Tests used:
[1] = system: DUBs in HEK293 lysate; experiment: Activity-based protein profiling in the lysate with Ub-VS competition; format: binding, human; conditions: 1 µM, 1 h
Protocol: Cells (4 × 10^6) were seeded in 10 cm dishes and grown to 90% confluency. The medium was aspirated, cells were washed with ice-cold PBS, treated with 600 µL ABP lysis buffer (1% (v/v) IGEPAL, 50 mM Tris, 150 mM NaCl, 5% glycerol, pH 8, cOmplete protease inhibitor cocktail), and incubated on ice for 15 min. The lysed cells were scrapped off the dish, cleared by centrifugation, and the protein concentration was determined via a Bradford assay. […] Each compound was diluted to a 2x concentration in PBS buffer from a 10 mM stock in DMSO (final concentration: 1 µM). Then each compound dilution or a DMSO dilution was mixed with cell lysate and incubated for one hour at room temperature. […] Samples were resolved by SDS-PAGE using a 4–12% Bis-Tris gel (Invitrogen, NuPAGE) with MES SDS running buffer for 50 min at 180 V. Fluorescence was read out using the Alexa564 (λex/em 520–545/577–613 nm, for TAMRA) and Alexa680 (λex/em 650–675/700–730 nm, for the PageRuler Prestained NIR Protein Ladder (Thermo Scientific)) channels on a ChemiDoc MP Imaging System (Bio-Rad).

[2] = system: T1, UCHL1 in HEK293 cells; experiment: Cellular Ub-probe (HA-Ub-VS) competition, inhibition of cellular UCHL1; format: cell-based, human
T1 construct: Western blot analysis of endogenous UCHL1 labeled with HA-Ub-VS after treatment of HEK293 cells; endogenous in cells; host or cells: HEK293
Protocol: Proteins were transferred to a polyvinylidene fluoride (PVDF, only experiments in Fig. 4e and Supplementary Fig. 7e, f) or nitrocellulose (all other experiments) membrane using a Trans-Blot Turbo system (Bio-Rad, 1.3 A, 25 V, 10 min). The membranes were blocked with 5% (m/v) nonfat milk in PBS-T buffer and incubated with indicated primary antibodies (anti-UCHL1, 1:1000, Cell Signaling, D3T2E; anti-PARK7, 1:1000, Cell Signaling, D29E5; anti-Tubulin, 1:4000, Sigma, T6199; anti-Hemagglutinin, 1:1000, BioLegend, 16B12; anti-flag, 1:2000, Sigma, F3165; anti-Ubiquitin, 1:1000, Cell Signaling, P4D1; anti-Ubiquitin, 1:300, Santa Cruz, P4D1, sc-8017; anti-UCHL3, 1:1000, Proteintech, 12384-1-AP) overnight. Then the membranes were incubated with the respective secondary antibody (anti-mouse,1:5000, Sigma, NXA931; anti-rabbit, 1:5000, Sigma, GENA934) coupled to horseradish peroxidase. The chemiluminescent reaction was initiated using a Clarity Western ECL substrate (Bio-Rad) and images were taken on a ChemiDoc MP Imaging System (Bio-Rad).
The total protein concentration was adjusted to 2 mg/ml by diluting each sample with ABP lysis buffer. A final concentration of 1 µM HA-Ub-VS probe was added, followed by incubation for 30 min at 37 °C. The labeling reaction was quenched by the addition of 4x LDS sample buffer. The samples were separated via SDS-PAGE and further analyzed via western blotting as described above.

[3] = target: T2, UCHL1 (Homo sapiens, UniProt P09936); experiment: Ub-Rhodamine (Ubiquitin rhodamine cleavage) assay; format: biochemical; conditions: 1 h preincubation; for remaining activity at 0.000610352 µM: compound 0.610352 nM; for remaining activity at 0.0012207 µM: compound 1.2207 nM; for remaining activity at 0.00244141 µM: compound 2.44141 nM; for remaining activity at 0.00488281 µM: compound 4.88281 nM; for remaining activity at 0.00976562 µM: compound 9.76562 nM; for remaining activity at 0.0195312 µM: compound 19.5312 nM; for remaining activity at 0.0390625 µM: compound 39.0625 nM; for remaining activity at 0.078125 µM: compound 78.125 nM; for remaining activity at 0.15625 µM: compound 156.25 nM; for remaining activity at 0.3125 µM: compound 312.5 nM; for remaining activity at 0.625 µM: compound 625 nM; for remaining activity at 1.25 µM: compound 1250 nM; for remaining activity at 2.5 µM: compound 2500 nM; for remaining activity at 5 µM: compound 5000 nM; for remaining activity at 10 µM: compound 10000 nM; for remaining activity at 0.00050402 µM: compound 0.50402 nM; for remaining activity at 0.00151206 µM: compound 1.51206 nM; for remaining activity at 0.00453618 µM: compound 4.53618 nM; for remaining activity at 0.0136085 µM: compound 13.6085 nM; for remaining activity at 0.0408257 µM: compound 40.8257 nM; for remaining activity at 0.122477 µM: compound 122.477 nM; for remaining activity at 0.367431 µM: compound 367.431 nM; for remaining activity at 1.10229 µM: compound 1102.29 nM; for remaining activity at 3.30688 µM: compound 3306.88 nM; for remaining activity at 30.581 µM: compound 30581 nM; for remaining activity at 100 µM: compound 100000 nM
T2 sequence (P09936 1-223): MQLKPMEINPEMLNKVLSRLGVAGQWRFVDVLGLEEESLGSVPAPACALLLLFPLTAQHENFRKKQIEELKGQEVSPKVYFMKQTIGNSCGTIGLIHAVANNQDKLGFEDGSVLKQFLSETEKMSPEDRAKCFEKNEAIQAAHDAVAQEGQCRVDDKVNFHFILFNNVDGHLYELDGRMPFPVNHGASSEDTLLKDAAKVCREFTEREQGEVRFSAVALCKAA

[4] = target: T2, UCHL1; experiment: Identification of probe-labeled proteins with mass spectrometry (pulldown enrichment); conditions: HEK293 cells; 1 µM; 24 h
Protocol: Cells were cultured, treated with a compound, and lysed as described above. The cell lysate was diluted to a protein concentration of 2 mg/mL with ABP lysis buffer. 1 µL of each click reagent (see above) were added to each sample, followed by an incubation period of one hour at room temperature with protection from light. The sample volume was adjusted to 1000 µL with PBS and 30 µL of a NeutrAvidin (Thermo Fisher) bead slurry (prewashed 3x with PBS) were added to each sample. The samples were incubated for one hour to overnight on a rotator at 15 rpm at 4 °C. Beads were pelleted by centrifugation, the supernatant was discarded, and the beads were washed six times (1x with ½x lysis buffer, followed by five washes with PBS). After removing the washing solution completely, the beads were subjected to reduction with dithiothreitol (1 mM), alkylation with chloroacetamide (5 mM) and on-bead digestion with first LysC (Serva Biotech, 1 h, 37 °C), followed by trypsin (Sigma Aldrich, 1 h, overnight). Tryptic peptides were desalted with C18 StageTips and analyzed by nano-HPLC-MS/MS.
An Ultimate 3000 RSLC nano-HPLC system and a Hybrid-Orbitrap mass spectrometer (Q Exactive Plus) equipped with a nano-spray source (Thermo Fisher Scientific) was used. The protein fragments were enriched on a C18 PepMap 100 column (5 μm, 100 Å, 300 μm ID * 5 mm, Dionex) using 0.1% TFA, at a flow rate of 30 μL/min, for 5 min and separated on a C18 PepMap 100 column (3 μm, 100 Å, 75 μm ID × 50 cm) using a linear gradient (5–30% ACN/H2O + 0.1% formic acid over 90 min) with a flow rate of 300 nL/min. […] Signals in the mass range of m/z 300 to 1650 were acquired at a resolution of 70,000 for the full scan, followed by ten high-energy collision-dissociation (HCD) MS/MS scans of the most intense at least doubly charged ions at a resolution of 17,500. Proteins were relatively quantified by using MaxQuant[60] v.2.0.3.1, including the Andromeda search algorithm and searching the Homo sapiens reference proteome of the UniProt database. Briefly, an MS/MS ion search was performed for enzymatic trypsin cleavage, allowing two missed cleavages. Carbamidomethylation was set as a fixed protein modification, and oxidation of methionine and acetylation of the N-terminus were set as variable modifications. The mass accuracy was set to 20 parts per million (ppm) for the first search and to 4.5 ppm for the second search. The false discovery rates for peptide and protein identification were set to 0.01. Only proteins for which at least two peptides were quantified were chosen for further validation. Relative quantification of proteins was performed by using the label-free quantification algorithm implemented in MaxQuant. Statistical data analysis of pulldown samples was performed using Perseus[61] v.1.6.15.0, including proteins which were identified in at least four of the five biological replicates which were used per condition. Label-free quantification (LFQ) intensities were log-transformed (log2); replicate samples were grouped together. Pairwise comparisons of groups were performed separately. Missing values were imputed using small normally distributed values (width 0.3, downshift 1.8) and a two-sided t-test (s0 = 5, FDR = 0.001) was performed.

[5] = target: T2, UCHL1; experiment: Thermal shift assay; format: binding; conditions: UCHL1 1 µM, 1 h, replicates
Protocol: Reactions were performed in white 96-well PCR plates (Bio-Rad). UCHL1 was diluted in thermal shift buffer (1x PBS, 5 mM DTT) to a 4x concentration of 4 µM. The protein was then mixed with 4x compound dissolved in thermal shift buffer in a 1:1 ratio. To each well was added 20 µL of DUB-Inhibitor solution, followed by 1 h incubation time. To each well was then added 20 µL 4x SYPRO Orange in thermal shift buffer. After sealing the plates with a transparent film, thermal denaturation (gradient: 20–90 °C; Increment: 0.3 °C, hold for 5 s before read) was performed and monitored by a Bio-Rad Connect cycler.

[6] = mean ± SD of independent experiments, read-out: IC50 (UCHL1)
[7] = read-out: UCHL1 activity, data point mean
[8] = source data Fig. 3b, read-out: Averaged IC50s from independent experiments (single experiments)

Row | Structure (SMILES) | DUB engagement (Ub-VS competitive labeling) [1] | IC50 ([3]; read-out: IC50 (UCHL1)) [nM] | melting temperature (Tm) of UCHL1 ([5]; compound 1.25 µM) | melting temperature (Tm) of UCHL1 ([5]; compound 2.5 µM) | melting temperature (Tm) of UCHL1 ([5]; compound 5 µM) | remaining activity at 0.00050402 µM [3, 7] [%] | remaining activity at 0.00151206 µM [3, 7] [%] | remaining activity at 0.00453618 µM [3, 7] [%] | remaining activity at 0.0136085 µM [3, 7] [%] | remaining activity at 0.0408257 µM [3, 7] [%] | remaining activity at 0.122477 µM [3, 7] [%] | remaining activity at 0.367431 µM [3, 7] [%] | remaining activity at 1.10229 µM [3, 7] [%] | remaining activity at 3.30688 µM [3, 7] [%] | remaining activity at 30.581 µM [3, 7] [%] | remaining activity at 100 µM [3, 7] [%] | other results
1 | C#CCCC(=O)Nc1cccc(/C=C/c2ccc3c(C#N)c(N)[nH]c3c2)c1 [CG041] | did not show any covalent-irreversibly bound proteins at all | – | – | – | – | – | – | – | – | – | – | – | – | – | – | – | –
2 | C#CCCCNC(=O)c1ccc(-n2cnc(NC(=O)[C@@H]3CCN(C#N)C3)c2)cc1 [GK13R] | – | 2000 | 53.1 and 53.4 | 53.7 and 53.4 | 54 and 54.6 | – | – | – | – | – | – | – | – | – | – | – | inhibition of cellular UCHL1 ([2]; HEK293 cells, 24 h): complete inhibition of UCHL1; IC50 [3, 6]: 2090 ± 164 nM; remaining activity at 0.000305176 µM ([3]; compound 0.305176 nM, read-out: UCHL1 activity, data point mean): 103%; remaining activity at 0.000610352 µM [3, 7]: 98.3%; remaining activity at 0.0012207 µM [3, 7]: 99.2%; remaining activity at 0.00244141 µM [3, 7]: 99.4%; remaining activity at 0.00488281 µM [3, 7]: 97.8%; remaining activity at 0.00976562 µM [3, 7]: 96.8%; remaining activity at 0.0195312 µM [3, 7]: 95.9%; remaining activity at 0.0390625 µM [3, 7]: 98.3%; remaining activity at 0.078125 µM [3, 7]: 93.7%; remaining activity at 0.15625 µM [3, 7]: 88%; remaining activity at 0.3125 µM [3, 7]: 80.6%; remaining activity at 0.625 µM [3, 7]: 70.3%; remaining activity at 1.25 µM [3, 7]: 52.9%; remaining activity at 2.5 µM [3, 7]: 34.3%; remaining activity at 5 µM [3, 7]: 13.6%; remaining activity at 10 µM [3, 7]: 3.56%; IC50 [3, 8]: 2210 nM and 1980 nM; change in log2 enrichment values of UCHL1, GK13S vs GK13R [4]: 2
3 | C#CCCCNC(=O)[C@@H]1CCN(C#N)C1 [GK16R] | – | > 100000 | 53.4 and 53.1 | 53.1 and 53.4 | 53.4 and 53.1 | 91.8 | 91.4 | 89.6 | 96.6 | 94.5 | 93.7 | 92.4 | 91.5 | 89 | 83.6 | 80.5 | –
4 | C#CCCC(=O)NCc1ccc(-c2cccc(Oc3ccnc(C#N)n3)c2)cc1 [CG017] | did not show any covalent-irreversibly bound proteins at all | – | – | – | – | – | – | – | – | – | – | – | – | – | – | – | –
5 | COCCNC(=O)c1ccc(-n2cnc(NC(=O)[C@H]3CCN(C#N)C3)c2)cc1 [Cpd158, reference compound] | – | – | 59.4 | 59.4 | 59.1 and 59.4 | – | – | – | – | – | – | – | – | – | – | – | inhibition of cellular UCHL1 ([2]; HEK293 cells, 1 and 5 µM, 1 h and 24 h (Supplementary Fig. 5f)): time- and concentration-dependent inhibition; remaining activity at 0.000610352 µM [3, 7]: 96.9%; remaining activity at 0.0012207 µM [3, 7]: 97.3%; remaining activity at 0.00244141 µM [3, 7]: 95.8%; remaining activity at 0.00488281 µM [3, 7]: 91.1%; remaining activity at 0.00976562 µM [3, 7]: 90.7%; remaining activity at 0.0195312 µM [3, 7]: 86.9%; remaining activity at 0.0390625 µM [3, 7]: 82%; remaining activity at 0.078125 µM [3, 7]: 76.7%; remaining activity at 0.15625 µM [3, 7]: 62.5%; remaining activity at 0.3125 µM [3, 7]: 34.6%; remaining activity at 0.625 µM [3, 7]: 14.3%; remaining activity at 1.25 µM [3, 7]: 4.23%; remaining activity at 2.5 µM [3, 7]: 2.34%; remaining activity at 5 µM [3, 7]: 1.97%; remaining activity at 10 µM [3, 7]: 1.42%; IC50 [3, 8]: 222 nM and 36 nM and 129 nM and 153 nM and 104 nM
6 | C#CCCCNC(=O)c1ccc(-n2cnc(NC(=O)[C@H]3CCNC3)c2)cc1 [GK12S] | – | > 100000 | 53.4 and 53.1 | 53.4 | 53.4 and 53.1 | 91.5 | 91.7 | 90.7 | 97.1 | 88.7 | 91.4 | 92.8 | 91.5 | 88.8 | 90.9 | 101 | –
7 | C#CCN1CCN(CCOc2ccc(C(CCC)NC(=O)/C(C#N)=C/c3cccc(Br)n3)cc2)CC1 (stereo not drawn) [MS037] | did not show DUB engagement | – | – | – | – | – | – | – | – | – | – | – | – | – | – | – | –
8 | N#CN1CCC[C@H]1C(=O)N1CCc2c(-c3ccnc4[nH]ccc34)cccc21 [Cpd117, reference compound] | – | – | – | – | – | – | – | – | – | – | – | – | – | – | – | – | inhibition of cellular UCHL1 ([2]; after 1 h (Supplementary Fig. 5f)): very low degree of inhibition; inhibition of cellular UCHL1 ([2]; after 24 h incubation (Supplementary Fig. 5f)): no inhibition of cellular UCHL1 at all; IC50 [3, 6]: 9 ± 3 nM
9 | C#CCn1cc(-c2ccc(C(=O)N[C@@H]3CCN(C#N)C3)c(F)c2)cn1 [CG50R] | did not show DUB engagement | – | – | – | – | – | – | – | – | – | – | – | – | – | – | – | –
10 | C#CCCCNC(=O)c1ccc(-n2cnc(NC(=O)[C@@H]3CCNC3)c2)cc1 [GK12R] | – | > 100000 | 53.4 and 52.8 and 53.1 | 53.4 | 53.1 | 95.8 | 97.9 | 98 | 94.4 | 95.3 | 95.6 | 94.6 | 95.5 | 94.2 | 93.5 | 99.1 | –
